Laboratory results published in patent US20050180971A1, “Cancer therapy” (priority 2002, published 2005).
Several values for one entry are separate records, joined by “and”; a condition that tells them apart may be missing. Equal values may be shown once.

Tested on: AE 17 cells
Test: Murine mesothelioma model: subcutaneous AE 17 tumor challenge, tumor area by callipers
Format: in vivo, C57/B16 mice
From the text: Malignant mesothelioma in humans is an asbestos induced, incurable tumor that has a particularly poor prognosis. Average time from diagnosis to death being only eight months (Musk and Woodward, 1982). A murine model was developed by researchers in the Department of Medicine at the University of Western Australia to further the development of suitable interventions (Davies et al., 1992).
Day 0 was defined as the day of tumor cell inoculation with 1×10^6 AE 17 cells subcutaneously. The AE 17 tumor cell line was derived from C57/B16 mice and inoculated back into the same strain. This point will be referred to as a tumor challenge henceforth. Three groups of 5 mice were all challenged in this way. Subsequently the first of the groups was given a single ip dose of vinblastine (Vb) at 6 mg/kg body weight exactly 14 days post tumor challenge (Vb 19/11/01 group). The second group of 5 mice were similarly treated the next day; 15 days post tumor challenge (Vb 20/11/01). The third group received no Vb treatment (No treatment/control group).
Tumor measurements were taken from Day 14 onwards with callipers (2 diameters at right angles to each other in mm's). These two diameters are then multiplied together to give a mm^2 value that is known from past experience to correlate well with both tumor volume and tumor mass.

[1] = single ip Vb 6 mg/kg on day 14 post tumor challenge, measured day 14 (19-Nov)
[2] = single ip Vb 6 mg/kg on day 14 post tumor challenge, measured day 15 (20-Nov)
[3] = single ip Vb 6 mg/kg on day 14 post tumor challenge, measured day 18 (23-Nov)
[4] = single ip Vb 6 mg/kg on day 14 post tumor challenge, measured day 21 (26-Nov)
[5] = single ip Vb 6 mg/kg on day 14 post tumor challenge, measured day 24 (29-Nov)
[6] = single ip Vb 6 mg/kg on day 14 post tumor challenge, measured day 25 (30-Nov)
[7] = single ip Vb 6 mg/kg on day 14 post tumor challenge, measured day 28 (3-Dec)
[8] = single ip Vb 6 mg/kg on day 14 post tumor challenge, measured day 30 (5-Dec)
[9] = single ip Vb 6 mg/kg on day 15 post tumor challenge, measured day 14 (19-Nov), before treatment
[10] = single ip Vb 6 mg/kg on day 15 post tumor challenge, measured day 15 (20-Nov)
[11] = single ip Vb 6 mg/kg on day 15 post tumor challenge, measured day 18 (23-Nov)
[12] = single ip Vb 6 mg/kg on day 15 post tumor challenge, measured day 21 (26-Nov)
[13] = single ip Vb 6 mg/kg on day 15 post tumor challenge, measured day 24 (29-Nov)
[14] = single ip Vb 6 mg/kg on day 15 post tumor challenge, measured day 25 (30-Nov)
[15] = single ip Vb 6 mg/kg on day 15 post tumor challenge, measured day 28 (3-Dec)
[16] = single ip Vb 6 mg/kg on day 15 post tumor challenge, measured day 30 (5-Dec)

## CC[C@]1(O)C[C@@H]2CN(CCc3c([nH]c4ccccc34)[C@@](C(=O)OC)(c3cc4c(cc3OC)N(C)[C@H]3[C@@](O)(C(=O)OC)[C@H](OC(C)=O)[C@]5(CC)C=CCN6CC[C@]43[C@@H]65)C2)C1 [Vb, vinblastine]
Vb treatment day 15 post challenge
  mice with significant tumor development: 4/5
Single Vb treatment day 14 post challenge
  protection from tumor development: heavily protected from tumor development
Single Vb treatment day 14 post challenge, 5 mice
  effectiveness: 80%
Single ip Vb 6 mg/kg on day 14 post tumor challenge, measured (7-Dec)
  Tumor area (2 diameters multiplied), individual animal: 0 mm^2 (4×) and 70 mm^2
[1]
  Tumor area (2 diameters multiplied), individual animal: 4 mm^2 (4×) and 0.5 mm^2
  Tumor area, group mean: 3.3 mm^2
[2]
  Tumor area (2 diameters multiplied), individual animal: 0.5 mm^2 (3×) and 0 mm^2 (2×)
  Tumor area, group mean: 0.3 mm^2
[3]
  Tumor area (2 diameters multiplied), individual animal: 0 mm^2 (2×) and 2 mm^2 and 1 mm^2 and 0.5 mm^2
  Tumor area, group mean: 0.7 mm^2
[4]
  Tumor area (2 diameters multiplied), individual animal: 0.5 mm^2 (2×) and 1 mm^2 and 0 mm^2 (2×)
  Tumor area, group mean: 0.4 mm^2
[5]
  Tumor area (2 diameters multiplied), individual animal: 0 mm^2 (3×) and 6 mm^2 and 4 mm^2
  Tumor area, group mean: 2 mm^2
[6]
  Tumor area (2 diameters multiplied), individual animal: 0 mm^2 (3×) and 1 mm^2 and 0.5 mm^2
  Tumor area, group mean: 0.3 mm^2
[7]
  Tumor area (2 diameters multiplied), individual animal: 0 mm^2 (3×) and 0.5 mm^2 and 40 mm^2
  Tumor area, group mean: 8.1 mm^2
[8]
  Tumor area (2 diameters multiplied), individual animal: 0 mm^2 (4×) and 70 mm^2
  Tumor area, group mean: 14 mm^2
Single ip Vb 6 mg/kg on day 14 post tumor challenge, measured day 32 (7-Dec)
  Tumor area, group mean: 14 mm^2
Single ip Vb 6 mg/kg on day 15 post tumor challenge, measured (7-Dec)
  Tumor area (2 diameters multiplied), individual animal: 81 mm^2 and 0.5 mm^2 and 90 mm^2 (2×)
[9]
  Tumor area (2 diameters multiplied), individual animal: 0.5 mm^2 (3×) and 4 mm^2 and 9 mm^2
  Tumor area, group mean: 2.9 mm^2
[10]
  Tumor area (2 diameters multiplied), individual animal: 1 mm^2 and 0.5 mm^2 (3×) and 0 mm^2
  Tumor area, group mean: 0.5 mm^2
[11]
  Tumor area (2 diameters multiplied), individual animal: 4 mm^2 and 0.5 mm^2 (2×) and 0 mm^2 (2×)
  Tumor area, group mean: 1 mm^2
[12]
  Tumor area (2 diameters multiplied), individual animal: 9 mm^2 and 0.5 mm^2 (3×) and 8 mm^2
  Tumor area, group mean: 3.7 mm^2
[13]
  Tumor area (2 diameters multiplied), individual animal: 16 mm^2 and 0.5 mm^2 and 25 mm^2 and 12 mm^2
  Tumor area, group mean: 13.4 mm^2
[14]
  Tumor area (2 diameters multiplied), individual animal: 20 mm^2 and 0.5 mm^2 and 30 mm^2 and 25 mm^2
  Tumor area, group mean: 18.9 mm^2
[15]
  Tumor area (2 diameters multiplied), individual animal: 42 mm^2 and 0.5 mm^2 and 56 mm^2 and 90 mm^2
  Tumor area, group mean: 47.1 mm^2
[16]
  Tumor area (2 diameters multiplied), individual animal: 56 mm^2 and 0.5 mm^2 and 90 mm^2 (2×)
  Tumor area, group mean: 59.1 mm^2
Single ip Vb 6 mg/kg on day 15 post tumor challenge, measured day 32 (7-Dec)
  Tumor area, group mean: 65.4 mm^2
